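The compound was tested at five concentrations on cells cultured in 96-well plates, with a 48-hour exposure period. GI50 marks 50% less growth.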 The source made the active and inactive calls. No stated cut-off is given here; in the data, active = GI50 up to about 1.1 µM and inactive = higher.
Key:
Test in all cases: NCI-60 cell line screen, 48 h
OVCAR-4 = tested on: OVCAR-4
SK-OV-3 = tested on: SK-OV-3
NCI-H23 = tested on: NCI-H23
Hs-578T = tested on: Hs-578T
SK-MEL-2 = tested on: SK-MEL-2
COLO 205 = tested on: COLO 205
NCI-H226 = tested on: NCI-H226
MCF7 = tested on: MCF7
SK-MEL-28 = tested on: SK-MEL-28
EKVX = tested on: EKVX
A498 = tested on: A498
SR = tested on: SR
M14 = tested on: M14
T47D = tested on: T47D
TK-10 = tested on: TK-10
NCI-H460 = tested on: NCI-H460
OVCAR-8 = tested on: OVCAR-8
SF-295 = tested on: SF-295
SW-620 = tested on: SW-620
HCT-15 = tested on: HCT-15

SMILES | GI50 (OVCAR-4) | GI50 (SK-OV-3) | GI50 (NCI-H23) | GI50 (Hs-578T) | GI50 (SK-MEL-2) | GI50 (COLO 205) | GI50 (NCI-H226) | GI50 (MCF7) | GI50 (SK-MEL-28) | GI50 (EKVX) | GI50 (A498) | GI50 (SR) | GI50 (M14) | GI50 (T47D) | GI50 (TK-10) | GI50 (NCI-H460) | GI50 (OVCAR-8) | GI50 (SF-295) | GI50 (SW-620) | GI50 (HCT-15) [µM]
CC(C)[Si]1(C(C)C)OCC2OC(n3cnc4c(N)ncnc43)C(N)C2O[Si](C(C)C)(C(C)C)O1 (centres undefined) | 8.09 µM (inactive) | 24 µM (inactive) | 9.16 µM (inactive) | 11.8 µM (inactive) | 6.22 µM (inactive) | 5.68 µM (inactive) | 9.66 µM (inactive) | 2.55 µM (inactive) | 25.9 µM (inactive) | 17.7 µM (inactive) | 13.9 µM (inactive) | 2.42 µM (inactive) | 8.45 µM (inactive) | 8.15 µM (inactive) | 10.1 µM (inactive) | 4.07 µM (inactive) | 8.24 µM (inactive) | 3.65 µM (inactive) | 6.41 µM (inactive) | 6.9
C[C@]12CC(c3ccccc3O1)C(C(=O)Nc1nc(C34CC5CC(CC(C5)C3)C4)cs1)C(=O)N2 (some centres undefined) | > 100 µM (inactive) | > 100 µM (inactive) | > 100 µM (inactive) | > 100 µM (inactive) | > 100 µM (inactive) | > 100 µM (inactive) | > 100 µM (inactive) | > 100 µM (inactive) | > 100 µM (inactive) | > 100 µM (inactive) | > 100 µM (inactive) | > 100 µM (inactive) | > 100 µM (inactive) | > 100 µM (inactive) | – | > 100 µM (inactive) | > 100 µM (inactive) | – | > 100 µM (inactive) | > 100
COc1ccc2c(c1)CC[C@@H]1C2CC[C@]2(C)C(=C=CP(=O)(O)O)CCC12 (some centres undefined) | > 100 µM (inactive) | > 100 µM (inactive) | > 100 µM (inactive) | > 100 µM (inactive) | > 100 µM (inactive) | > 100 µM (inactive) | > 100 µM (inactive) | 79.6 µM (inactive) | > 100 µM (inactive) | > 100 µM (inactive) | > 100 µM (inactive) | 99.5 µM (inactive) | > 100 µM (inactive) | > 100 µM (inactive) | > 100 µM (inactive) | > 100 µM (inactive) | > 100 µM (inactive) | > 100 µM (inactive) | > 100 µM (inactive) | > 100
COc1cc2c(cc1OC)[C@H]1CN3CCC[C@H]3C=C1c1ccc(OC)c(O)c1-2 | 0.00031 µM (active) | < 0.0001 µM (active) | 0.000553 µM (active) | 0.00192 µM (active) | 0.000505 µM (active) | 0.0006 µM (active) | 0.000736 µM (active) | 0.00404 µM (active) | 0.0006 µM (active) | 0.000883 µM (active) | < 0.0001 µM (active) | 0.00059 µM (active) | 0.00048 µM (active) | 0.00337 µM (active) | 0.000998 µM (active) | 0.000558 µM (active) | 0.000557 µM (active) | < 0.0001 µM (active) | 0.000499 µM (active) | 0.000549
C#CCn1ncc2c(SC)ncnc21 | > 100 µM (inactive) | > 100 µM (inactive) | > 100 µM (inactive) | > 100 µM (inactive) | > 100 µM (inactive) | > 100 µM (inactive) | > 100 µM (inactive) | > 100 µM (inactive) | > 100 µM (inactive) | 66.4 µM (inactive) | > 100 µM (inactive) | > 100 µM (inactive) | > 100 µM (inactive) | 19 µM (inactive) | > 100 µM (inactive) | > 100 µM (inactive) | > 100 µM (inactive) | > 100 µM (inactive) | > 100 µM (inactive) | > 100
N#CC1=C(N)OC2=C(CCCc3ccccc32)C1c1ccc([N+](=O)[O-])cc1 (centres undefined) | 15.8 µM (inactive) | 30.9 µM (inactive) | 15.2 µM (inactive) | 36.5 µM (inactive) | 17.9 µM (inactive) | 16.1 µM (inactive) | 24.7 µM (inactive) | 16.7 µM (inactive) | 15.8 µM (inactive) | 13.8 µM (inactive) | 12 µM (inactive) | 10.9 µM (inactive) | 13.6 µM (inactive) | 8.18 µM (inactive) | 28.8 µM (inactive) | 17.7 µM (inactive) | 17.9 µM (inactive) | 14.9 µM (inactive) | 13.6 µM (inactive) | 12.2
CSc1c(C#N)c(S)n(-c2ccc(Cl)cc2)c(=O)c1C#N | 46.1 µM (inactive) | > 100 µM (inactive) | 39.6 µM (inactive) | > 100 µM (inactive) | > 100 µM (inactive) | > 100 µM (inactive) | 48.9 µM (inactive) | > 100 µM (inactive) | > 100 µM (inactive) | > 100 µM (inactive) | > 100 µM (inactive) | 33 µM (inactive) | > 100 µM (inactive) | 47.5 µM (inactive) | > 100 µM (inactive) | > 100 µM (inactive) | 74.1 µM (inactive) | – | > 100 µM (inactive) | 74.1
Cc1cc2c(c3c1c1ccccc1n3C)C(=O)C=CC2=O | 12 µM (inactive) | 55.5 µM (inactive) | 10.7 µM (inactive) | 24.8 µM (inactive) | 21.6 µM (inactive) | 29.1 µM (inactive) | 40.3 µM (inactive) | 10.9 µM (inactive) | 19.9 µM (inactive) | > 75.5 µM (inactive) | 47.5 µM (inactive) | 0.885 µM (active) | 25.6 µM (inactive) | 13 µM (inactive) | 24.2 µM (inactive) | 33.9 µM (inactive) | 22.9 µM (inactive) | 32.4 µM (inactive) | 7.6 µM (inactive) | 13.7
CS(=O)(=O)NC12CCC(c3ccccc31)c1ccccc12 | > 100 µM (inactive) | > 100 µM (inactive) | > 100 µM (inactive) | > 100 µM (inactive) | > 100 µM (inactive) | > 100 µM (inactive) | > 100 µM (inactive) | > 100 µM (inactive) | > 100 µM (inactive) | > 100 µM (inactive) | > 100 µM (inactive) | > 100 µM (inactive) | > 100 µM (inactive) | > 100 µM (inactive) | > 100 µM (inactive) | > 100 µM (inactive) | – | – | > 100 µM (inactive) | > 100
Cc1ccc(S(=O)(=O)OC2C3OC(C)(C)OC3OC2C(c2cc(O)c3c(c2O)C(=O)c2ccccc2C3=O)c2cc(O)c3c(c2O)C(=O)c2ccccc2C3=O)cc1 (centres undefined) | > 10 µM (inactive) | > 10 µM (inactive) | > 10 µM (inactive) | > 10 µM (inactive) | > 10 µM (inactive) | > 10 µM (inactive) | > 10 µM (inactive) | > 10 µM (inactive) | > 10 µM (inactive) | > 10 µM (inactive) | > 10 µM (inactive) | > 10 µM (inactive) | > 10 µM (inactive) | > 10 µM (inactive) | > 10 µM (inactive) | > 10 µM (inactive) | > 10 µM (inactive) | > 10 µM (inactive) | > 10 µM (inactive) | > 10
Cc1ccc(/C=C/C(=N/NC(=O)N/N=C(/C=C/c2ccc(C)cc2)C(C)(C)CN2CCCCC2)C(C)(C)CN2CCCCC2)cc1 | 2.07 µM (inactive) | 1.77 µM (inactive) | 2.19 µM (inactive) | 1.52 µM (inactive) | 1.94 µM (inactive) | 1.53 µM (inactive) | 1.82 µM (inactive) | 1.47 µM (inactive) | 1.73 µM (inactive) | 2.67 µM (inactive) | 1.67 µM (inactive) | 0.0787 µM (active) | 0.614 µM (active) | 2.19 µM (inactive) | 1.74 µM (inactive) | 1.64 µM (inactive) | 1.54 µM (inactive) | 1.71 µM (inactive) | 1.79 µM (inactive) | 1.57
N#CC(NNC(=O)Cc1ccccc1)c1c(O)ccc2ccccc12 (centres undefined) | 5.5 µM (inactive) | 4.84 µM (inactive) | 4.89 µM (inactive) | 7.64 µM (inactive) | 2.92 µM (inactive) | 24.7 µM (inactive) | 18.4 µM (inactive) | 3.15 µM (inactive) | 7.66 µM (inactive) | 5.56 µM (inactive) | 30.3 µM (inactive) | 3.44 µM (inactive) | 5.13 µM (inactive) | 3.45 µM (inactive) | 20.3 µM (inactive) | 4.25 µM (inactive) | 4.17 µM (inactive) | 4.63 µM (inactive) | 6.98 µM (inactive) | 2.7
Cc1nn(-c2ccccc2)c2c1C(c1cc3ccccc3nc1Cl)NC(=O)N2 (centres undefined) | 34.1 µM (inactive) | 20.1 µM (inactive) | 17.9 µM (inactive) | 27.5 µM (inactive) | 14.3 µM (inactive) | 19.5 µM (inactive) | 19.1 µM (inactive) | 25.3 µM (inactive) | – | 25.9 µM (inactive) | 21.5 µM (inactive) | 2.19 µM (inactive) | 19.6 µM (inactive) | 59.2 µM (inactive) | 28.2 µM (inactive) | 30.8 µM (inactive) | 19.3 µM (inactive) | 21.1 µM (inactive) | 17.7 µM (inactive) | 19.8
C/C=C1/CN2CCC34C5=CC(=O)C(c6cc7c(cc6OC)N(C)C6=C(C(=O)OC)CC8(CC)CCCN9CCC67C98)=CC5=NC23CCC1C4C(=O)OC (centres undefined) | 14 µM (inactive) | 16.7 µM (inactive) | 14.8 µM (inactive) | 7.21 µM (inactive) | 16.5 µM (inactive) | 8.61 µM (inactive) | 20.4 µM (inactive) | 9.14 µM (inactive) | 16.8 µM (inactive) | 13.8 µM (inactive) | 16.6 µM (inactive) | 2.73 µM (inactive) | 12.3 µM (inactive) | 15.1 µM (inactive) | 17 µM (inactive) | 14.3 µM (inactive) | 14.9 µM (inactive) | 17.7 µM (inactive) | 8.73 µM (inactive) | 14.6

From ChEMBL document CHEMBL1201862, “PubChem BioAssay data set” (2004)
